Laboratory results reported in ChEMBL document CHEMBL1132322, “Paullones, a series of cyclin-dependent kinase inhibitors: synthesis, evaluation of CDK1/cyclin B inhibition, and in vitro antitumor activity” (J Med Chem, 1999).

Columns and labels:
Test in all cases: cells
Tumor Cell line [1] = details: Homo sapiens, read-out: Log GI50 (converted)
HCT-116 [2] = format: functional; details: Homo sapiens
Description: The logarithmic molar concentration inhibiting 50% net cell growth was measured on HCT116 (M) colon cancer cell lines.

Tumor Cell line [3] = format: functional; details: Homo sapiens
Tumor Cell line [4] = details: Homo sapiens, read-out: Log GI50 (converted); remark: listed apart in the source
HCT-116 [5] = format: functional; details: Homo sapiens; remark: listed apart in the source
Description: The logarithmic molar concentration inhibiting 50% net cell growth was measured on HCT116 (M)colon cancer cell lines (in experiment 2)

HCT-116 [6] = format: functional; details: Homo sapiens; remark: listed apart in the source
Description: The logarithmic molar concentration inhibiting 50% net cell growth was measured on HCT116 (M)colon cancer cell lines (in experiment 1)

| SMILES | GI50 (HCT-116 [2]) | GI50 (Tumor Cell line [3]) | also measured |
| --- | --- | --- | --- |
| CN1C(=O)Cc2c([nH]c3ccc(Br)cc23)-c2ccccc21 |  |  | GI50 (Tumor Cell line [1]): 31.6 µM |
| O=C1Cc2c([nH]c3ccccc23)-c2cc(Br)ccc2N1 | > 100 µM | 100 µM |  |
| CCc1cccc2c3c([nH]c12)-c1ccccc1NC(=O)C3 | 79.4 µM | 63.1 µM |  |
| COC(=O)CN1C(=O)Cc2c([nH]c3ccc(Br)cc23)-c2ccccc21 |  |  | GI50 (Tumor Cell line [4]): 31.6 µM |
| O=C1Cc2c([nH]c3c(Cl)cccc23)-c2ccccc2N1 | > 100 µM | 100 µM |  |
| O=C1Cc2c([nH]c3c(Br)cccc23)-c2ccccc2N1 |  | 50.1 µM |  |
| CSC1=Nc2ccccc2-c2[nH]c3ccc(Br)cc3c2C1 |  |  | GI50 (HCT-116 [5]): 1.58 µM |
| O=C1Cc2c([nH]c3ccc(Br)cc23)-c2cc(O)c(O)cc2N1 |  | 100 µM |  |
| CN1CCC(c2c(O)cc(O)c3c(=O)cc(-c4ccccc4Cl)oc23)[C@@H](O)C1 (stereo not given in full) | 0.0251 µM | 0.0631 µM |  |
| CCN1C(=O)Cc2c([nH]c3ccc(Br)cc23)-c2ccccc21 |  |  | GI50 (Tumor Cell line [1]): 25.1 µM; GI50 (HCT-116 [6]): > 100 µM; GI50 (Tumor Cell line [4]): 12.6 µM; GI50 (HCT-116 [5]): 12.6 µM |
| O=C1Cc2c([nH]c3ccc(Cl)cc23)-c2ccccc2N1 | 3.16 µM | 79.4 µM |  |
| ONC1=Nc2ccccc2-c2[nH]c3ccc(Br)cc3c2C1 | 6.31 µM | 10 µM |  |
| O=C1Cc2c([nH]c3ccc(Br)cc23)-c2cc(Br)ccc2N1 |  | 100 µM |  |
| O=C1Cc2c([nH]c3cc(Br)ccc23)-c2ccccc2N1 | 3.16 µM | 15.8 µM |  |
| COc1cccc2c1NC(=O)Cc1c-2[nH]c2ccccc12 |  | 79.4 µM |  |
| O=C1Cc2c([nH]c3ccc([N+](=O)[O-])cc23)-c2ccccc2N1 [ALSTERPAULLONE] |  |  | GI50 (Tumor Cell line [1]): 0.398 µM; GI50 (Tumor Cell line [4]): 0.316 µM |
| O=C1Cc2c([nH]c3ccc(Br)cc23)-c2ccccc2N1 [KENPAULLONE] |  | 39.8 µM |  |
| N#Cc1ccc2[nH]c3c(c2c1)CC(=O)Nc1ccccc1-3 [PAULLONE 2] | 20 µM | 79.4 µM |  |
| O=C1Cc2c([nH]c3ccc(Br)cc23)-c2ccccc2N1Cc1ccccc1 [PAULLONE] | 20 µM |  | GI50 (Tumor Cell line [1]): 31.6 µM; GI50 (Tumor Cell line [4]): 100 µM |
| O=C1Cc2c([nH]c3ccccc23)-c2ccccc2N1 [PAULLONE] | 15.8 µM | 31.6 µM |  |
